Data reported in patent publication US20100173943A1, “INSECTICIDAL COMPOSITIONS WITH IMPROVED ACTION” (BAYER CROPSCIENCE AG, priority 2007, published 2010).

Experiments:
[1] = tested on: cotton aphid (Aphis gossypii); assay: Aphis gossypii test (APHIGO spray treatment); assay type: in vivo; settings: cotton leaves sprayed, 6 days; for pest or weed control at 20 ppm: 20 ppm a.i. alone; for pest or weed control at 4 ppm: 4 ppm a.i. alone; for pest or weed control at 0.8 ppm: 0.8 ppm a.i. alone
Description: Aphis gossypii Test (APHIGO Spray Treatment)
(§1) Solvent: 7 parts by weight of dimethylformamide
(§2) Emulsifier: 2 parts by weight of alkylaryl polyglycol ether
To prepare a ready-to-use active ingredient formulation, 1 part by weight of active ingredient is mixed with the specified amounts of solvent and emulsifier and the concentrate is diluted with emulsifier-containing water to the desired concentration. In the case that addition of ammonium salts, penetrants, or ammonium salts and penetrants is required, they are pipetted in each case into the finished preparation solution after dilution in a concentration of 1000 ppm each.
Cotton leaves (Gossypium hirsutum) highly infested by the cotton aphid (Aphis gossypii) are sprayed with an active ingredient formulation with the desired concentration.
After the desired period, the kill rate in % is determined. 100% means that all aphids have been killed; 0% means that no aphids have been killed.

[2] = tested on: green peach aphid (Myzus persicae); assay: Myzus persicae test (MYZUPE); assay type: in vivo; settings: pepper plants sprayed, 6 days; for pest or weed control at 4 ppm / pest or weed control at 20 ppm / pest or weed control at 0.8 ppm / pest or weed control at 100 ppm: Myzus persicae, 144 h, read-out: Kill in % after 6 days a.i.; for pest or weed control at 4 ppm: 4 ppm a.i. alone; for pest or weed control at 20 ppm: 20 ppm a.i. alone; for pest or weed control at 0.8 ppm: 0.8 ppm a.i. alone; for pest or weed control at 100 ppm: 100 ppm a.i. alone
Description: Myzus persicae Test (MYZUPE)
as §1, §2
To prepare an appropriate active ingredient formulation, 1 part by weight of active ingredient is mixed with the given amounts of solvent and emulsifier, and the concentrate is diluted with emulsifier-containing water to the desired concentration. In the case that addition of ammonium salts, penetrants, or ammonium salts and penetrants is required, they are pippetted in each case into the finished preparation solution after dilution in a concentration of 1000 ppm each.
Pepper plants (Capsicum annuum) highly infested by the green peach aphid (Myzus persicaei) are treated by spraying with the active ingredient formulation in the desired concentration.
After the desired time, the kill rate in % is determined. 100% means that all animals have been killed; 0% means that no animals have been killed.

[3] = 20 ppm a.i. + AMS and RME 1000 ppm each
[4] = 20 ppm a.i. + ammonium sulphate 1000 ppm
[5] = 20 ppm a.i. + rapeseed oil methyl ester 1000 ppm
[6] = Aphis gossypii, 144 h, read-out: Kill in % after 6 days a.i.
[7] = 4 ppm a.i. + AMS and RME 1000 ppm each
[8] = 4 ppm a.i. + ammonium sulphate 1000 ppm
[9] = 4 ppm a.i. + rapeseed oil methyl ester 1000 ppm
[10] = 0.8 ppm a.i. + AMS and RME 1000 ppm each
[11] = 0.8 ppm a.i. + ammonium sulphate 1000 ppm
[12] = 0.8 ppm a.i. + rapeseed oil methyl ester 1000 ppm
[13] = 100 ppm a.i. + AMS and RME 1000 ppm each
[14] = 100 ppm a.i. + ammonium sulphate 1000 ppm
[15] = 100 ppm a.i. + rapeseed oil methyl ester 1000 ppm

Compound | Kill in % after 6 days +AMS + RME [1, 3] [%] | Kill in % after 6 days +AMS [1, 4] [%] | Kill in % after 6 days +RME [1, 5] [%] | pest or weed control at 20 ppm [1, 6] [%] | Kill in % after 6 days +AMS + RME [2, 7] [%] | Kill in % after 6 days +AMS [2, 8] [%] | Kill in % after 6 days +RME [2, 9] [%] | pest or weed control at 4 ppm [2] [%] | Kill in % after 6 days +AMS + RME [1, 7] [%] | Kill in % after 6 days +AMS [1, 8] [%] | Kill in % after 6 days +RME [1, 9] [%] | pest or weed control at 4 ppm [1, 6] [%] | Kill in % after 6 days +AMS + RME [2, 10] [%] | Kill in % after 6 days +AMS [2, 11] [%] | Kill in % after 6 days +RME [2, 12] [%] | pest or weed control at 0.8 ppm [2] [%] | also measured
O=C1C=C(N(Cc2ccc(C(F)(F)F)nc2)C2CC2)CO1 [Compound I-24, 4-(cyclopropyl {[6-(trifluoromethyl)pyrid-3-yl]methyl}amino)furan-2(5H)-one] | 90 | 85 | 85 | 50 | 75 | 20 | 85 | 15 |  |  |  |  |  |  |  |  | Kill in % after 6 days +AMS + RME [2, 3]: 98%; Kill in % after 6 days +AMS [2, 4]: 90%; Kill in % after 6 days +RME [2, 5]: 95%; pest or weed control at 20 ppm [2]: 75%
CC1OC(=O)C=C1N(C)Cc1ccc(Cl)nc1 (stereo not drawn) [Compound I-25, 4-{[(6-chloropyrid-3-yl)methyl](methyl)amino}-5-methylfuran-2(5H)-one] |  |  |  |  | 55 | 50 | 80 | 0 | 100 | 60 | 75 | 65 |  |  |  |  | 
CN(Cc1ccc(Br)nc1)C1=CC(=O)OC1 [Compound I-26, 4-{[(6-bromopyrid-3-yl)methyl](methyl)amino}furan-2(5H)-one] |  |  |  |  |  |  |  |  |  |  |  |  | 95 | 55 | 100 | 65 | Kill in % after 6 days +AMS + RME [1, 10]: 98%; Kill in % after 6 days +AMS [1, 11]: 70%; Kill in % after 6 days +RME [1, 12]: 98%; pest or weed control at 0.8 ppm [1, 6]: 90%
CN(Cc1ccc(Cl)nc1)C1=C(F)C(=O)OC1 [Compound I-28, 4-{[(6-chloropyrid-3-yl)methyl](methyl)amino}-3-fluorofuran-2(5H)-one] | 95 | 90 | 95 | 55 | 95 | 15 | 90 | 50 | 80 | 60 | 75 | 50 |  |  |  |  | 
CON(Cc1ccc(Cl)nc1)C1=CC(=O)OC1 [Compound I-29, 4-{[(6-chloropyrid-3-yl)methyl](methoxy)amino}furan-2(5H)-one] |  |  |  |  |  |  |  |  | 75 | 65 | 50 | 50 | 50 | 0 | 30 | 0 | 
CCN(Cc1ccc(Cl)nc1)C1=CC(=O)OC1 [Compound I-30, 4-{[(6-chloropyrid-3-yl)methyl](ethyl)amino}furan-2(5H)-one] | 95 | 100 | 100 | 80 |  |  |  |  |  |  |  |  | 45 | 25 | 95 | 5 | 
O=C1C=C(N(Cc2ccc(Cl)nc2)C2CC2)CO1 [Compound I-31, 4-{[(6-chloropyrid-3-yl)methyl](cyclopropyl)amino}furan-2(5H)-one] |  |  |  |  |  |  |  |  |  |  |  |  | 95 | 80 | 100 | 50 | Kill in % after 6 days +AMS + RME ([1]; 0.16 ppm a.i. + AMS and RME 1000 ppm each): 60%; Kill in % after 6 days +AMS ([1]; 0.16 ppm a.i. + ammonium sulphate 1000 ppm): 30%; Kill in % after 6 days +RME ([1]; 0.16 ppm a.i. + rapeseed oil methyl ester 1000 ppm): 15%; Kill in % after 6 days +AMS + RME [1, 10]: 80%; Kill in % after 6 days +AMS [1, 11]: 65%; Kill in % after 6 days +RME [1, 12]: 80%; pest or weed control at 0.16 ppm ([1]; Aphis gossypii, 144 h, 0.16 ppm a.i. alone, read-out: Kill in % after 6 days a.i.): 0%; pest or weed control at 0.8 ppm [1, 6]: 50%
C=CCN(Cc1ccc(Cl)nc1)C1=CC(=O)OC1 [Compound I-32, 4-{allyl[(6-chloropyrid-3-yl)methyl]amino}furan-2(5H)-one] | 100 | 100 | 100 | 0 | 80 | 60 | 70 | 0 |  |  |  |  |  |  |  |  | Kill in % after 6 days +AMS + RME [2, 3]: 100%; Kill in % after 6 days +AMS [2, 4]: 100%; Kill in % after 6 days +RME [2, 5]: 98%; pest or weed control at 20 ppm [2]: 15%
C#CCN(Cc1ccc(Cl)nc1)C1=CC(=O)OC1 [Compound I-33, 4-{[(6-chloropyrid-3-yl)methyl](prop-2-yn-1-yl)amino}furan-2(5H)-one] |  |  |  |  |  |  |  |  | 15 | 25 | 65 | 30 |  |  |  |  | Kill in % after 6 days +AMS + RME [2, 13]: 95%; Kill in % after 6 days +AMS [2, 14]: 45%; Kill in % after 6 days +RME [2, 15]: 95%; pest or weed control at 100 ppm [2]: 40%
CCCN(Cc1ccc(Cl)nc1)C1=CC(=O)CCC1 [Compound I-34, 3-{[(6-chloropyrid-3-yl)methyl](propyl)amino}cyclohex-2-en-1-one] |  |  |  |  |  |  |  |  |  |  |  |  |  |  |  |  | Kill in % after 6 days +AMS + RME [1, 13]: 45%; Kill in % after 6 days +AMS [1, 14]: 20%; Kill in % after 6 days +RME [1, 15]: 40%; pest or weed control at 100 ppm ([1]; Aphis gossypii, 144 h, 100 ppm a.i. alone, read-out: Kill in % after 6 days a.i.): 15%; Kill in % after 6 days +AMS + RME [2, 13]: 85%; Kill in % after 6 days +AMS [2, 14]: 50%; Kill in % after 6 days +RME [2, 15]: 85%; pest or weed control at 100 ppm [2]: 40%
